Several values for one entry are separate records, joined by “and”; a condition that tells them apart may be missing. Equal entries are not always repeated.
What was measured:
[1] = test system: mouse macrophages (Balb C); assay: In vitro cytotoxicity using mouse macrophages (acute toxicity), MTT assay; type: cell-based
Protocol: (§1) All steroids were dissolved in ethanol and diluted to appropriate concentration: 0.01, 0.5, 1.0, 2.0, 5.0 μg/ml from the two stock solution of 1 mg/ml and […]. Stocks were maintained at room temperature.
(§2) […] Approximately 1 ml of Phosphate buffer saline preincubated at 37° C. was injected into cavity. The abdomen was lavaged for 10 min and fluid along with macrophages were taken out using a syringe into polypropylene tube. The phosphate solution was spun at 800 rpm for 5-10 min and cells were resuspended in 1 ml RPMI media. Cell number was counted using haemocytometer.
(§3) Cells (mouse macrophages) were plated at a density of 5×10^3 cells/well in 96 plate at 37° C. in 5% CO2. Cells were exposed in graded concentration of compounds at designated various concentration. Each concentration was tested in triplicate wells. After 48 hr fresh MTT 20 μl (1 mg/ml) was added directly to all the wells and culture was incubated for 4 hr at 37° C. During this incubation, MTT was converted into a water insoluble formazan complex by metabolic activity of viable cells. Formazan crystal were taken and dissolved in 100 μl of DMSO, which give light pink colour. The absorbance of each well was read on Elisa plate reader (Merck) at 570 nm. The spectrometer was calibrated to zero absorbance using culture medium without cells. The relative cell viability (%) related to control well containing cell culture medium without drug was calculated by [A]test/[A]control×100. % Cell Viability=[A]test/[A]control×100 [A]test=absorbance test sample [A]control=absorbance control sample Results: LC50: Concentration of the Compound in μg/ml (μm), Lethal to 50% Population of Cells.
(§4) The assay quantifies the viable cells, after […] incubation of cells with five different concentrations.

[2] = as above; type: cell-based; details: both sexes, Balb C; mouse macrophages, from linear equation of MTT data; read-out: LC50 (concentration lethal to 50% population of cells)
Protocol: as §1, §2, §3, §4

[3] = test system: human prostate cancer cell line (DU-145); assay: Growth inhibitory activity assay (MTT assay), in vitro antiproliferative activity; type: cell-based; details: DU-145 cells; for % growth inhibition (mean ± SEM) / inhibition at 5 µg/mL: 5.0 μg/ml; for % growth inhibition (mean ± SEM) / inhibition at 0.01 µg/mL / inhibition at 0.5 µg/mL / inhibition at 1 µg/mL / inhibition at 2 µg/mL / inhibition at 5 µg/mL: 48 hr; for inhibition at 0.01 µg/mL / inhibition at 0.5 µg/mL / inhibition at 1 µg/mL / inhibition at 2 µg/mL / inhibition at 5 µg/mL: Homo sapiens, DU-145, 48 h, read-out: % growth inhibition (mean ± SEM); for inhibition at 0.01 µg/mL: 0.01 μg/ml; for inhibition at 0.5 µg/mL: 0.5 μg/ml; for inhibition at 1 µg/mL: 1.0 μg/ml; for inhibition at 2 µg/mL: 2.0 μg/ml
Protocol: 1) In Vitro Antiproliferative Activity Against Human Prostate Cancer Cell Line (DU-145)
Compounds were screened for antiproliferative activity on human prostate cell line DU-145 at National Centre of Human Genome Studies and Research. Panjab University, Chandigarh. All the compounds (10 to 16), Finasteride and starting material (9) were tested at five different concentrations: 0.01, 0.5, 1.0, 2.0, and 5.0 μg/ml. Finasteride was the positive control in this growth inhibitory assay.
Growth Inhibitory Activity Assay (MTT Assay)
We investigated the effect of newly synthesized compounds on cell growth inhibition using MTT assay. This assay quantifies the viable cells by observing the reduction of tetrazolium salt, MTT to formazan crystals by the live cells. Based on the absorbance of the cell sample after the test is carried out, cell viable can be measured [Loveland, B. E.; Jones, T. G.; Mackay. I. R.; Vaillant, F.; Wang, Z. X.; Hertzog, P. J. Biochem. International 1992, 27, 501 and Wright, S. A.; Thomas, L. N.; Douglas, R. C.; Lazier, C. B.; Rittmaster, R. S. J. Clin. Invest. 1996, 98, 2558]. Cells were cultured at a density of 5×10^3 cells/well in 96 well plates at 37° C. in 5.0% CO2 atmosphere and were allowed to attach for 24 hr. The cells were treated in triplicate with graded concentration of sample and reference drug Finasteride at 37° C. for 48 hr. A 20 μl aliquot of MTT solution was added directly to all the appropriate wells. Following 4 hr of incubation at […], the media was removed and formazan crystals, which results from the reduction of MTT by active cell were dissolved in 100 μl DMSO and vigorously mixed to dissolve the reacted dye. The absorbance of each well was read on Elisa plate reader (Merck) at 570 nm. The spectrometer was calibrated to zero absorbance using culture medium without cells. The relative cell viability (%) related to control well containing cell culture medium without drug was calculated by [A]test/[A]control×100. % Growth Inhibition=[OD]control−[OD]test/[OD]control×100 Results: […]

5α-reductase = assay: In vivo effect on serum testosterone level (5α-reductase inhibitory activity), ELISA; design: species or system Sprague Dawley rats; details: for Serum levels of Testosterone, T: Sprague Dawley male rats, intraperitoneal, Finasteride 40 mg/kg and equimolar dose of compounds, 6 hr after treatment
Protocol: Animals (Sprague Dawley male rats weighing 150-200 g) were divided into 3 groups; vehicle (control), Finasteride (standard), treated (test sample) and each group consist of 5 animals. Sprague Dawley rats were treated intraperitoneally with Finasteride 40 mg/kg and equimolar dose of compounds. After 6 hr of treatment, blood was withdrawn by cardiac puncture under diethyl ether anesthesia and serum was separated from cells by centrifugation. Plasma testosterone values were obtained by ELISA plate reader at […] and are given in ng/ml.
The aliquots of 50 μl of each of standards, control and unknown (serum samples) were added to Testosterone Antibody coated wells. 100 μl of HRP-testosterone conjugate was added to all the wells and the plates were shaken gently on a shaker for proper mixing of the reagents. Following 4 hr of incubation at 37° C., the incubation mixture was removed. The wells were washed with phosphate buffer for 5-6 times (200 μl each time), followed by addition of 100 μl of TMB/H2O2 substrate in each of the wells. The plates were further incubated at 37° C. for 20 minutes. At the end of incubation reaction was stopped by using 100 μl of 0.5 M H2SO4 as stopping reagent. The absorbance of each well was read on Elisa plate reader at 450 nm [Rassaie, M. J.; Kumari, G. L.; Pandey, P. K.; Gupta, N.; Kochupillai, N.; Grover, P. K. Steroids 1992, 57, 288 and Hosoda, H.; Yoshida, H.; Sakai, Y.; Miyairi, S.; Nambara, T. Chem. Pharm. Bull. 1980, 28, 3035]
Intact male rats (Sprague Dawley, 200-250 g) were used in the designed study in which various compounds were compared for in vivo 5α-reductase inhibitory potency, as judged by the their ability to attenuate the conversion of testosterone into dihydrotestosterone (DHT). […] The procedure measure T equally well, and method met all the requirement of precision, accuracy, sensitivity and selectivity.

[4] = both, Balb C, mouse, 48 h, 0.01 μg/ml
[5] = both, Balb C, mouse, 48 h, 0.5 μg/ml
[6] = both, Balb C, mouse, 48 h, 1 μg/ml
[7] = both, Balb C, mouse, 48 h, 2 μg/ml
[8] = both, Balb C, mouse, 48 h, 5 μg/ml

C[C@]12CC[C@H](OC(=O)c3ccc(O)cc3)CC1=CC[C@@H]1[C@@H]2CC[C@]2(C)C(=NO)CC[C@@H]12 [Compound 15, 17-oximino-5-androsten-3β-yl 4-hydroxybenzoate]
% viable Cells (mean ± SEM) [1, 4]: 89.80 ± 2.95%
% viable Cells (mean ± SEM) [1, 5]: 81.02 ± 2.83%
% viable Cells (mean ± SEM) [1, 6]: 63.99 ± 0.91%
% viable Cells (mean ± SEM) [1, 7]: 56.88 ± 0.39%
% viable Cells (mean ± SEM) [1, 8]: 55.36 ± 0.19%
CC50 at 48 h [2]: 22 µM
% growth inhibition (mean ± SEM) [3]: 91.54 ± 0.19%
antiproliferative activity (in words) ([3]; 0.01-5.0 μg/ml): more potent than the reference Finasteride
inhibition at 0.01 µg/mL [3]: 62.6 ± 2.46%
inhibition at 0.5 µg/mL [3]: 76.9 ± 5.94%
inhibition at 1 µg/mL [3]: 83.08 ± 0.75%
inhibition at 2 µg/mL [3]: 91.4 ± 1.5%
inhibition at 5 µg/mL [3]: > 90%
Serum levels of Testosterone, T (5α-reductase): 0.73 ng/mL

C[C@]12CC[C@H](OC(=O)COc3ccccc3)CC1=CC[C@@H]1[C@@H]2CC[C@]2(C)C(=NO)CC[C@@H]12 [Compound 16, 17-oximino-5-androsten-3β-yl phenoxyacetate]
% viable Cells (mean ± SEM) ([1]; mouse macrophages, 0.01 μg/ml): 80.79 ± 2.30%
% viable Cells (mean ± SEM) ([1]; mouse macrophages, 0.5 μg/ml): 78.32 ± 0.89%
% viable Cells (mean ± SEM) ([1]; mouse macrophages, 1.0 μg/ml): 77.04 ± 0.23%
% viable Cells (mean ± SEM) ([1]; mouse macrophages, 2.0 μg/ml): 77.31 ± 0.37%
% viable Cells (mean ± SEM) ([1]; mouse macrophages, 5.0 μg/ml): 77.37 ± 0.16%
toxicity to mouse macrophages (in words) ([1]; mouse macrophages, 0.01-5.0 μg/ml): non toxic to mouse macrophages
CC50 at 48 h [2]: 89 µM
inhibition at 0.01 µg/mL [3]: 33.6 ± 7.66%
inhibition at 0.5 µg/mL [3]: 24.2 ± 6.37%
inhibition at 1 µg/mL [3]: 36.2 ± 9.85%
inhibition at 2 µg/mL [3]: 76.5 ± 5.58%
inhibition at 5 µg/mL [3]: 87.8 ± 1.11%
Serum levels of Testosterone, T (5α-reductase): 0.85 ng/mL
effect on serum testosterone level (in words) (5α-reductase; rats, 6 hr post dose, compared to control): Significant increase in level of serum testosterone level

CC(C)(C)NC(=O)[C@H]1CC[C@H]2[C@@H]3CC[C@H]4NC(=O)C=C[C@]4(C)[C@H]3CC[C@]12C [Finasteride, reference compound]
% viable Cells (mean ± SEM) [1, 4]: 96.45 ± 0.36%
% viable Cells (mean ± SEM) [1, 5]: 94.20 ± 1.72%
% viable Cells (mean ± SEM) [1, 6]: 93.32 ± 0.59%
% viable Cells (mean ± SEM) [1, 7]: 81.18 ± 0.20%
% viable Cells (mean ± SEM) [1, 8]: 79.14 ± 0.312%
CC50 at 48 h [2]: 28.2 µM
% growth inhibition (mean ± SEM) [3]: 78.51 ± 4.63%
inhibition at 0.01 µg/mL [3]: 5 ± 1.58%
inhibition at 0.5 µg/mL [3]: 8.83 ± 8.4%
inhibition at 1 µg/mL [3]: 16.5 ± 2.49%
inhibition at 2 µg/mL [3]: 36 ± 8.95%
inhibition at 5 µg/mL [3]: 78%
Serum levels of Testosterone, T (5α-reductase): 1.26 ± 0.02 ng/mL and 1.26 ng/mL
